This data set relates to rodent carcinogenicity bioassays, tumor incidence. Description: CCRIS carcinogenicity studies. The method in brief:
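NCI-built, expert-reviewed records of carcinogenicity and related test outcomes (mutagenicity, tumor promotion/inhibition) compiled from published and report sources, historical span 1985-2011, not updated.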

Activity calls are given as the source filed them. The rule behind the calls is not given here.

With `CNC(=O)Oc1ccccc1OC(C)C`, the carcinogen call is, setting by setting: (Species: MOUSE, Strain/Sex: SWISS/FEMALE, Route: DERMAL, Dose: 0, 100 MG/KG BW IN 100 µL ACETONE 3/WK FOR 52 WK (STUDY DURATION: 52 WK)) “inactive; negative”; (Species: MOUSE, Strain/Sex: SWISS/MALE, Route: DERMAL, Dose: 0, 100 MG/KG BW IN 100 µL ACETONE 3/WK FOR 52 WK (STUDY DURATION: 52 WK)) “inactive; negative”.
`C=CC(=O)OC`: the carcinogen call is “inactive; negative” (Species: RAT, Strain/Sex: SPRAGUE-DAWLEY/FEMALE, Route: INHALATION, Dose: 0, 15, 45, 135 PPM 6 HR/D 5 D/WK FOR 24 MO (STUDY DURATION: 130 WK), Dose: 0, 15, 45, 135 PPM 6 HR/D 5 D/WK FOR 24 MO (STUDY DURATION: 130 WK)) and “inactive; negative” (Species: RAT, Strain/Sex: SPRAGUE-DAWLEY/MALE, Route: INHALATION, Dose: 0, 15, 45, 135 PPM 6 HR/D 5 D/WK FOR 24 MO (STUDY DURATION: 130 WK), Dose: 0, 15, 45, 135 PPM 6 HR/D 5 D/WK FOR 24 MO (STUDY DURATION: 130 WK)).
As for `O=C1O[C@H]([C@@H](O)CO)C(O)=C1O`, the carcinogen call was “inactive; negative” (Species: MOUSE, Strain/Sex: B6C3F1/FEMALE, Route: ORAL, Dose: 0, 25000, 50000 PPM IN DIET FOR 103 WK, Dose: 0, 25000, 50000 PPM IN DIET FOR 103 WK); “inactive; negative” (Species: MOUSE, Strain/Sex: B6C3F1/MALE, Route: ORAL, Dose: 0, 25000, 50000 PPM IN DIET FOR 103 WK, Dose: 0, 25000, 50000 PPM IN DIET FOR 103 WK); “inactive; negative” (Species: RAT, Strain/Sex: F344/FEMALE, Route: ORAL, Dose: 0, 25000, 50000 PPM IN DIET FOR 103 WK, Dose: 0, 25000, 50000 PPM IN DIET FOR 103 WK); “inactive; negative” (Species: RAT, Strain/Sex: F344/MALE, Route: ORAL, Dose: 0, 1, 5, 7% IN DIET OF MALE RATS, PARENTAL GENERATION ALSO FED SODIUM ASCORBATE FOR 4 WK BEFORE MATING THEN CONTINUING I, Dose: 0, 1, 5, 7% IN DIET OF MALE RATS, PARENTAL GENERATION ALSO FED SODIUM ASCORBATE FOR 4 WK BEFORE MATING THEN CONTINUING I); “inactive; negative” (Species: RAT, Strain/Sex: F344/MALE, Route: ORAL, Dose: 0, 25000, 50000 PPM IN DIET FOR 103 WK, Dose: 0, 25000, 50000 PPM IN DIET FOR 103 WK); “inactive; negative (significant increase in hyperplasia observed in combined chemical grou” (Species: Rat, Strain/Sex: F344/Male (9-15/group), Route: Oral, Dose: 0, 1%, 1% with 0.2% sodium nitrite in diet for 32 wk, study duration 32 wk in surgically altered rats to produce chronic, Dose: 0, 1%, 1% with 0.2% sodium nitrite in diet for 32 wk, study duration 32 wk in surgically altered rats to produce chronic, Tumor Site: Type of Lesion: Esophagus examined). The carcinogen call (Species: Rat, Strain/Sex: Non-tg/Male, Route: Oral, Dose: 5% sodium ascorbate in diet, continuous, for 57 wk until sacrifice, Tumor Site: Type of Lesion: Total tumor-bearing animals (20.0% in experimental animals vs 25.0% in controls), no bladder tumors) was “inactive; negative. parallel experiment in hras128 rat line was conducted to determine bla”.
Consider `CC(=O)O[C@]1(C(C)=O)CC[C@H]2[C@@H]3C=C(Cl)C4=CC(=O)CC[C@]4(C)[C@H]3CC[C@@]21C`, for which the carcinogen call (Species: DOG, Route: ORAL, Tumor Site: Type of Lesion: MAMMARY GLAND) was “active; positive”.
Turning to `CCOP(=S)(OCC)SC1OCCOC1SP(=S)(OCC)OCC` (centres undefined), the carcinogen call is “inactive; negative” (Species: MOUSE, Strain/Sex: B6C3F1/FEMALE, Route: ORAL, Dose: 0, 467, 935 PPM IN DIET, TWA, Dose: 0, 467, 935 PPM IN DIET, TWA); “inactive; negative” (Species: MOUSE, Strain/Sex: B6C3F1/MALE, Route: ORAL, Dose: 0, 284, 567 PPM IN DIET, TWA, Dose: 0, 284, 567 PPM IN DIET, TWA); “inactive; negative” (Species: RAT, Strain/Sex: OSBORNE-MENDEL/FEMALE, Route: ORAL, Dose: 0, 45, 90 PPM IN DIET, TWA, Dose: 0, 45, 90 PPM IN DIET, TWA); “inactive; negative” (Species: RAT, Strain/Sex: OSBORNE-MENDEL/MALE, Route: ORAL, Dose: 0, 90, 180 PPM IN DIET, TWA, Dose: 0, 90, 180 PPM IN DIET, TWA).
Regarding `O[C@H]1CCc2c(ccc3cc4ccc5ccccc5c4nc23)[C@@H]1O`, the carcinogen call was “inactive; negative” (Species: MOUSE, Strain/Sex: CD-1/FEMALE, Route: INTRAPERITONEAL, Dose: 0, 175 NMOL (TOTAL DOSE) ADMINISTERED AS 1/7 OF DOSE WITHIN 24 HR AFTER BIRTH, 2/7 OF DOSE AT 8 D OLD, 4/7 OF DOSE AT 15) and “inactive; negative” (Species: MOUSE, Strain/Sex: CD-1/MALE, Route: INTRAPERITONEAL, Dose: 0, 175 NMOL (TOTAL DOSE) ADMINISTERED AS 1/7 OF DOSE WITHIN 24 HR AFTER BIRTH, 2/7 OF DOSE AT 8 D OLD, 4/7 OF DOSE AT 15).
On to `O=C(CCl)c1ccccc1`, for which the carcinogen call was “inactive; negative” (Species: MOUSE, Strain/Sex: B6C3F1/FEMALE, Route: INHALATION, Dose: 0, 2, 4 MG/M3 6 HR/D 5 D/WK FOR 103 WK (STUDY DURATION: 105 WK), Dose: 0, 2, 4 MG/M3 6 HR/D 5 D/WK FOR 103 WK (STUDY DURATION: 105 WK)); “inactive; negative” (Species: MOUSE, Strain/Sex: B6C3F1/MALE, Route: INHALATION, Dose: 0, 2, 4 MG/M3 6 HR/D 5 D/WK FOR 103 WK (STUDY DURATION: 105 WK), Dose: 0, 2, 4 MG/M3 6 HR/D 5 D/WK FOR 103 WK (STUDY DURATION: 105 WK)); “equivocal” (Species: RAT, Strain/Sex: F344/FEMALE, Route: INHALATION, Dose: 0, 1, 2 MG/M3 6 HR/D 5 D/WK FOR 103 WK (STUDY DURATION: 105 WK), Dose: 0, 1, 2 MG/M3 6 HR/D 5 D/WK FOR 103 WK (STUDY DURATION: 105 WK), Tumor Site: Type of Lesion: MAMMARY GLAND: FIBROADENOMA); “inactive; negative” (Species: RAT, Strain/Sex: F344/MALE, Route: INHALATION, Dose: 0, 1, 2 MG/M3 6 HR/D 5 D/WK FOR 103 WK (STUDY DURATION: 105 WK), Dose: 0, 1, 2 MG/M3 6 HR/D 5 D/WK FOR 103 WK (STUDY DURATION: 105 WK)).
For the compound `O=[N+]([O-])c1ccc2c3c(cccc13)-c1ccccc1-2`, the carcinogen call by setting is: (Species: MOUSE, Strain/Sex: B6C3F1/MALE, Route: INTRAPERITONEAL, Dose: 0, 400 NMOL IN 35 µL DMSO ON DAYS 1 (1/7 TOTAL DOSE), 8 (2/7 TOTAL DOSE), AND 15 (4/7 TOTAL DOSE) AFTER BIRTH (STUDY DUR) “inactive; negative”; (Species: MOUSE, Strain/Sex: ICR/FEMALE, Route: INTRAPERITONEAL, Dose: 0, 63 UG TOTAL DOSE (9 UG/5 µL, 18 UG/10 µL, 36 UG/20 µL DMSO ON DAYS 1, 8 AND 15), 315 UG TOTAL DOSE (45 UG/5 µL, 90 UG, Dose: 0, 63 UG TOTAL DOSE (9 UG/5 µL, 18 UG/10 µL, 36 UG/20 µL DMSO ON DAYS 1, 8 AND 15), 315 UG TOTAL DOSE (45 UG/5 µL, 90 UG, Tumor Site: Type of Lesion: LUNG: ADENOMA) “active; positive”; (Species: MOUSE, Strain/Sex: ICR/MALE, Route: INTRAPERITONEAL, Dose: 0, 63 UG TOTAL DOSE (9 UG/5 µL, 18 UG/10 µL, 36 UG/20 µL DMSO ON DAYS 1, 8 AND 15), 315 UG TOTAL DOSE (45 UG/5 µL, 90 UG, Dose: 0, 63 UG TOTAL DOSE (9 UG/5 µL, 18 UG/10 µL, 36 UG/20 µL DMSO ON DAYS 1, 8 AND 15), 315 UG TOTAL DOSE (45 UG/5 µL, 90 UG, Tumor Site: Type of Lesion: LUNG: ADENOMA) “active; positive”; (Species: RAT, Strain/Sex: F344/DUCRJ FISCHER/MALE, Route: SUBCUTANEOUS, Dose: 2 MG TWICE WEEKLY FOR A TOTAL OF 15 INJECTIONS (STUDY DURATION: 52 WK), Tumor Site: Type of Lesion: INTEGUMENTARY SYSTEM: FIBROUS HISTIOCYTOMAS) “active; positive”; (Species: RAT, Strain/Sex: F344/MALE, Route: LUNG IMPLANT, Dose: 0, 1000 UG SUSPENDED IN BEESWAX/TRICAPRYLIN INTO LOWER LEFT LUNG ONCE (STUDY DURATION: 100 WK)) “inactive; negative”; (Species: RAT, Strain/Sex: F344/MALE, Route: PULMONARY IMPLANT, Dose: 0, 1000 UG IN 50 µL BEESWAX/TRICAPRYLIN IMPLANTED FOR UP TO 100 WK (STUDY DURATION: 100 WK)) “inactive; negative”.
On to `CCNNCC`, for which the carcinogen call (Species: RAT, Route: PRE-NATAL EXP, Tumor Site: Type of Lesion: BRAIN, NERVOUS SYSTEM) was “active; positive”.
